{"source": "patent US11725015B2", "about": "“Macrocyclic compound and uses thereof” (President and Fellows of Harvard College, priority 2017, dated 2023)", "key": {"[1]": {"tested_on": "TE-8 (human squamous cell carcinoma of the esophagus)", "experiment": "In vitro antiproliferative activity, TE-8", "assay_type": "cell-based", "conditions": "TE-8, 72 hours", "experimental": "The in vitro antiproliferative assays for Compound (1) were conducted using a small panel of cancer cell lines including human squamous cell carcinoma of the esophagus (OE21, TE-8), human adenocarcinoma of the esophagus (OE33), and human uterine sarcoma (MES-SA, MES-SA-Dx5-Rx1). All cell lines were cultured in RPMI-1640 medium containing 10% FBS, and penicillin-streptomycin (culture medium), in a 5% CO2 incubator (37° C.). To each well of a 96 well plate (Becton, Dickinson and Company, 353219), 75 μL of cell suspension adjusted to a concentration of 4×10^4 cells/mL with the culture medium was added, and the cells were incubated overnight in a 5% CO2 incubator (37° C.). On the next day, 25 μL of Compound (1) in three-fold dilution series suspended in the culture medium was added to each well, and the resultant was incubated for 72 hours in a 5% CO2 incubator (37° C.). Then, cell viability was determined by CellTiter-Glo® Luminescent Cell Viability Assay (Promega) with 2013 EnVision™ Multilabel Reader (Perkin-Elmer, Wellesley, Mass.). Value of the wells containing cells without adding the test compounds was defined as 100% and the value of the wells containing no cells was defined as 0%. […] The P-gp susceptibility was calculated as the ratio of the IC50 value in MES-SA-Dx5-Rx1 cells, which overexpress P-gp, to the IC50 value in MES-SA cells."}, "[2]": {"tested_on": "KPL-4 subcutaneous xenograft", "experiment": "Antitumor activity in KPL-4 subcutaneous xenograft model in combination with trastuzumab in mice", "assay_type": "in vivo", "experimental": "A human HER-2 positive breast cancer cell line KPL-4, which had been cultured in an RPMI-1640 medium containing 10% FBS, and penicillin and streptomycin, was adjusted to a concentration of 1×10^8 cells/mL with Hank's Balanced Salt Solution to prepare a cell suspension. The cell suspension was inoculated in a volume of 100 μL into a subcutaneous part of a right flank of nude mice, 7 weeks of ages (CAnN.Cg-Foxnlnu/CrlCrlj, female, Charles River Laboratories Japan, Inc.).\nOn the basis of the volumes of tumors obtained on the first day of administration, the mice were grouped such that averages of the tumor volumes were substantially equal among the groups. The experiment was conducted on groups each consisting of 6 mice. Each test compound was dissolved in DMSO and a solution was stored at the freezer before use. Immediately before the administration, the stock solution was diluted in saline."}, "[3]": {"tested_on": "HCC1806 subcutaneous xenograft", "experiment": "Antitumor activity against HCC1806 subcutaneous xenograft model in mice as monotherapy", "assay_type": "in vivo", "conditions": "0.18 mg/kg intravenously, Q7D×2", "experimental": "A human breast cancer cell line HCC1806, which had been cultured in an RPMI-1640 medium containing 10% FBS, and penicillin and streptomycin, was adjusted to a concentration of 1×10^8 cells/mL with PBS to prepare a cell suspension, and the suspension was mixed with Matrigel™ (BD Bioscience, #366237) in a ratio of 1:1 to prepare a cell suspension in a concentration of 5×10^7 cell/mL. The cell suspension was inoculated in a volume of 100 μL into a subcutaneous part of a right flank of nude mice, 5 weeks of ages (CAnN.Cg-Foxnlnu/CrlCrlj, female, Charles River Laboratories Japan, Inc.).\nOn the basis of the volumes of tumors obtained on the first day of administration, the mice were grouped such that averages of the tumor volumes were substantially equal among the groups. The experiment was conducted on groups each consisting of 6 mice. Test compound was dissolved in saline and intravenously administered at 0.18 mg/kg once a week for 2 weeks (Q7D×2 schedule)."}, "[4]": {"target": "T1, tubulin protein purified from porcine brain (Sus scrofa, UniProt P02550+P02554)", "T1 construct": "lyophilized tubulin protein purified from porcine brain; purchased Cytoskeleton, Inc. BK011P; host or cells: porcine brain (tissue-purified)", "T1 sequence (P02554 whole entry)": "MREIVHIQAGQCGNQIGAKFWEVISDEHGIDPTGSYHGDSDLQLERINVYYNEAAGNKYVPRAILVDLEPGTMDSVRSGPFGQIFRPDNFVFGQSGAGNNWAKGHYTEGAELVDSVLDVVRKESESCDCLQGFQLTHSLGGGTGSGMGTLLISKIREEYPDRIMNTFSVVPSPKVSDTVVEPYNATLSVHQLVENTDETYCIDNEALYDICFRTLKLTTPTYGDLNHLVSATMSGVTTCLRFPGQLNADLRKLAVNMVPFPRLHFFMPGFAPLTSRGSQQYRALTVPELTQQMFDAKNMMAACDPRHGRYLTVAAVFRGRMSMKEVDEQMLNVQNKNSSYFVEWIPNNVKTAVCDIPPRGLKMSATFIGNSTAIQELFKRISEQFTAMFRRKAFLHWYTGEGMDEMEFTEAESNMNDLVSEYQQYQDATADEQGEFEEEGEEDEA", "T1 sequence (P02550 whole entry)": "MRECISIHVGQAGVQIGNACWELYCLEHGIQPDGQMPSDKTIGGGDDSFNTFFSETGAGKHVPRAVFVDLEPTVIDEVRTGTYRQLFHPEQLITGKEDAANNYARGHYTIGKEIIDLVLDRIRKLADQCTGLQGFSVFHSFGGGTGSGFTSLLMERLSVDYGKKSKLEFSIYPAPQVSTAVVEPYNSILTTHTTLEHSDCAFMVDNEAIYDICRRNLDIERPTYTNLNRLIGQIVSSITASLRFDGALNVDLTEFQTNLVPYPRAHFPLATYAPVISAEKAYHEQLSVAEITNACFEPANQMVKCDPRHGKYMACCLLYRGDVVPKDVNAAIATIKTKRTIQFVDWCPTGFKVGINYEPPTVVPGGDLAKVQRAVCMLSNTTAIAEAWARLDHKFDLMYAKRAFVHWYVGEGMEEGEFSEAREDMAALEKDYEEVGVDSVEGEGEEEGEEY", "experiment": "Cell-free tubulin polymerization assay", "assay_type": "biochemical", "conditions": "final concentrations 0.625-10 μmol/L", "experimental": "Tubulin Polymerization Assay kit was purchased from Cytoskeleton, Inc. (Cat. #BK011P). The kit contained 1 bottle of lyophilized tubulin protein purified from porcine brain, 3 tubes of lyophilized GTP, 2 bottles of lyophilized assay buffer, and 1 bottle of tubulin glycerol buffer. Assay buffer was prepared by dissolving the contents in 10 mL of deionized and sterilized water. This solution contained 80 mmol/L piperazine-N,N′-bis[2-ethanesulfonic acid] sesquisodium salt, 2.0 mmol/L magnesium chloride, 0.5 mmol/L ethylene glycol-bis(2-amino-ethyl ether) N,N,N′,N′-tetra-acetic acid, pH 6.9, and 10 μmol/L fluorescent reporter. The buffer was stored at −70° C. until use. […]\nIn the tubulin polymerization assay, reaction mixture was prepared by mixing 820 μL of assay buffer, 17.6 μL of GTP stock solution, and 600 μL of tubulin glycerol buffer. […] Fluorescence emission at 460 nm (excitation wavelength at 360 nm) was measured every 2 minutes for 90 minutes using the SpectraMax® M5e microplate reader (Molecular Devices). Tubulin polymerization was followed by fluorescence enhancement due to the incorporation of a fluorescence reporter into microtubules as polymerization occurred. […]"}}}
{"compound": "C=C1C[C@@H]2CC[C@@]34C[C@H]5O[C@H]6[C@@H](O3)[C@H]3O[C@H](CC[C@@H]3O[C@H]6C5O4)CC(=O)O[C@@H]3[C@@H](C)[C@@H]4O[C@@H]5C[C@]6(C[C@@H]7O[C@]8(C[C@H](C)[C@@H]9O[C@H](CN)[C@H](O)C[C@@H]9O8)C[C@H](C)[C@@H]7O6)O[C@@H]5C[C@@H]4O[C@H]3C[C@H]3O[C@@H](CC[C@@H]1O2)C[C@@H](C)C3=C", "note": "[Compound (1)]", "values": [{"measurement": "antiproliferative activity", "setting": "[1]", "value": "potent antiproliferative agent"}, {"measurement": "Tumor Regression (%)", "setting": "[2]; 0.09 mg/kg intravenously + trastuzumab 10 mg/kg", "value": 83, "unit": "%"}, {"measurement": "Tumor Regression (%)", "setting": "[2]; 0.09 mg/kg intravenously, without trastuzumab", "value": 43, "unit": "%"}, {"measurement": "Tumor Regression (%)", "setting": "[2]; 0.18 mg/kg intravenously + trastuzumab 10 mg/kg", "value": 100, "unit": "%"}, {"measurement": "Tumor Regression (%)", "setting": "[2]; 0.18 mg/kg intravenously, without trastuzumab", "value": 87, "unit": "%"}, {"measurement": "Tumor Regression (%)", "setting": "[3]", "value": 90, "unit": "%"}, {"measurement": "effect on tubulin polymerization", "setting": "[4]", "value": "inhibited tubulin polymerization in a concentration-dependent manner"}]}
